Consider 27 compounds from US12173002B2, “PRMT5 inhibitors and methods of use” (SHANGHAI APEIRON THERAPEUTICS COMPANY LIMITED, priority 2022, dated 2024).

In general, IC50 refers to the midpoint of a concentration-inhibition curve. A lower IC50 goes with greater potency.

Test [1] concerns HCT-116 MTAP(−/−) deficient cells. As to the kind of experiment: Inhibitory activity on proliferation of HCT-116 MTAP(−/−) deficient cells (Cell-Titer Glo, 8 days). In kind it is cell-based. As to conditions: Homo sapiens, HCT-116, 192 h, 8 days incubation. On the procedure:
Test 1: Compound's inhibitory activity on proliferation of HCT-116 MTAP(−/−) deficient cells. P Materials and Cells: HCT-116 MTAP(−/−) deficient cells obtained from Kyinno Bio (China); RPMI-1640 medium, fetal bovine serum, and penicillin-streptomycin purchased from Thermo Fisher Scientific (America); 384-well plates from PerkinElmer (America); Cell-Titer Glo assay kit from Promega (America).
Cell Culture: HCT116 MTAP(−/−) deficient cells were cultured in RPMI 1640 medium containing 10% fetal bovine serum and 1% penicillin-streptomycin at 37° C., 5% CO2. Only cells in logarithmic growth phase were used for experiments.
Cell Proliferation Inhibition Assay: The compound's inhibitory activity on HCT-116 MTAP(−/−) deficient cells was assessed using the Cell-Titer Glo assay kit. Adjusting cell concentration, 40 μL was seeded into a 384-well plate and cultured overnight at 37° C., 5% CO2. Each well received 40 nL of the compound, achieving concentrations from 0 to 10,000 nM (starting concentration 10,000 nM, 3-fold dilution, 10 points), with 0.1% DMSO. The cell plate was incubated for 8 days at 37° C., 5% CO2. Cell-Titer Glo reagent (40 μL) was added to measure cell viability.

Test [2] has as its system HCT-116 MTAP wild-type cells. As to the kind of experiment: Inhibitory activity on proliferation of HCT-116 MTAP wild-type cells (Cell-Titer Glo, 8 days). It counts as cell-based. The settings on record: Homo sapiens, HCT-116, 192 h, 8 days incubation. As to the method:
Test 2: Compound's inhibitory activity on proliferation of HCT-116 MTAP wild-type cells.
Materials and Cells: HCT-116 MTAP wild-type cells obtained from Kyinno Bio (China); RPMI-1640 medium, fetal bovine serum, and penicillin-streptomycin purchased from Thermo Fisher Scientific (America); 384-well plates from PerkinElmer (America); Cell-Titer Glo assay kit from Promega (America).
Cell Culture: HCT116 MTAP wild-type cells were cultured in RPMI 1640 medium containing 10% fetal bovine serum and 1% penicillin-streptomycin at 37° C., 5% CO2. Only cells in logarithmic growth phase were used for experiments.
Cell Proliferation Inhibition Assay: The compound's inhibitory activity on HCT-116 MTAP wild-type cells was assessed using the Cell-Titer Glo assay kit. Adjusting cell concentration, 40 μL was seeded into a 384-well plate and cultured overnight at 37° C., 5% CO2. Each well received 40 nL of the compound, achieving concentrations from 0 to 10,000 nM (starting concentration 10,000 nM, 3-fold dilution, 10 points), with 0.1% DMSO. The cell plate was incubated for 8 days at 37° C., 5% CO2. Cell-Titer Glo reagent (40 μL) was added to measure cell viability.

Bounds are passed on as bounds.

Regarding `CN(C(=O)c1ccc2nc(N)c3cncn3c2c1)[C@@H]1CSc2cc(S(=O)(=O)C3CC3)ccc21` [Example 133, (S)-4-amino-N-(6-(cyclopropylsulfonyl)-2,3-dihydrobenzo[b]thiophen-3-yl)-N-methylimidazo[1,5-a] quinoxaline-8-carboxamide], the values for the IC50 in test [1] and in test [2] were 71.4 nM and > 10000 nM, respectively.
The like results for `Nc1nc2ccc(C(=O)N(C3CC3)[C@H]3COc4cc(C(F)(F)F)ccc43)cc2n2cncc12` (single isomer, unassigned) [Example 83] were, in that order, 2640 nM and 4700 nM.
For `CN(C(=O)c1ccc2nc(N)c3cncn3c2c1)C1COCc2ccc(C(F)(F)F)cc21` (stereo not drawn) [Example 8, 4-amino-N-methyl-N-(6-(trifluoromethyl)isochroman-4-yl) imidazo[1,5-a] quinoxaline-8-carboxamide] the same measures were 106 nM and 6480 nM.
On to `CN(C(=O)c1ccc2nc(N)c3cncn3c2c1)[C@H]1COc2nc(C(F)(F)F)ccc21` (single isomer, unassigned) [Example 89], for which the IC50 in test [1] is > 3000 nM; in test [2], > 10000 nM.
For `Nc1nc2ccc(C(=O)N(C3CC3)[C@H]3COc4cc(Br)ccc43)cc2n2cncc12` [Example 81, (R)-4-amino-N-(6-bromo-2,3-dihydrobenzofuran-3-yl)-N-cyclopropylimidazo[1,5-a]quinoxaline-8-carboxamide] the same measures were 1790 nM and 2360 nM.
The like results for `CN(C(=O)c1cc2c(cc1F)nc(N)c1cncn12)[C@@H]1CCOc2cc(-c3cnn(C(F)(F)F)c3)ccc21` [Example 113, (R)-4-amino-7-fluoro-N-methyl-N-(7-(1-(trifluoromethyl)-1H-pyrazol-4-yl)chroman-4-yl) imidazo[1,5-a] quinoxaline-8-carboxamide] were, in that order, 88.1 nM and > 10000 nM.
For `CN(C(=O)c1cc2c(cc1F)nc(N)c1cncn12)[C@@H]1COc2cc(-c3cnn(C)c3)ccc21` [Example 34, (S)-4-amino-7-fluoro-N-methyl-N-(6-(1-methyl-1H-pyrazol-4-yl)-2,3-dihydrobenzofuran-3-yl)imidazo[1,5-a] quinoxaline-8-carboxamide] the same measures were 29.6 nM and 6570 nM.
Regarding `CN(C(=O)c1ccc2nc(N)c3cncn3c2c1)C1CCOCc2cc(C(F)(F)F)ccc21` (stereo not drawn) [Example 44, 4-amino-N-methyl-N-(8-(trifluoromethyl)-1,3,4,5-tetrahydrobenzo[c]oxepin-5-yl) imidazo[1,5-a] quinoxaline-8-carboxamide], the IC50 in test [1] was 310 nM; in test [2], > 10000 nM.
For `Nc1nc2ccc(C(=O)N(C3CC3)C3COc4cc(Br)ccc43)cc2n2cncc12` (stereo not drawn) [Example 74, 4-amino-N-(6-bromo-2,3-dihydrobenzofuran-3-yl)-N-cyclopro-pylimidazo[1,5-a] quinoxaline-8-carboxamide] the same measures were 148 nM and 5990 nM.
`Nc1nc2cnc(C(=O)N(C3CC3)[C@H]3COc4cc(C(F)(F)F)ccc43)cc2n2cncc12` (single isomer, unassigned) [Example 87]: the IC50 in test [1] was found to be 9030 nM; in test [2], 10800 nM.
The like results for `[2H]c1ncc2c(N)nc3ccc(C(=O)N(C)[C@@H]4COc5cc(C(F)(F)F)ccc54)cc3n12` [Example 78, (S)-4-amino-N-methyl-N-(6-(trifluoromethyl)-2,3-dihydrobenzofuran-3-yl)imidazo[1,5-a]quinoxaline-8-carboxamide-1-d] were, in that order, 7.1 nM and 2070 nM.
Consider `CN(C(=O)c1ccc2nc(N)c3cncn3c2c1)[C@@H]1COc2cc(Cl)ccc21` [Example 70, (S)-4-amino-N-(6-chloro-2,3-dihydrobenzofuran-3-yl)-N-methylimidazo[1,5-a]quinoxaline-8-carboxamide], for which the IC50 was determined as 54 nM in test [1] and 3890 nM in test [2].
For `[2H]c1ncn2c1c(N)nc1ccc(C(=O)N(C)[C@@H]3COc4cc(C(F)(F)F)ccc43)cc12` [Example 79, (S)-4-amino-N-methyl-N-(6-(trifluoromethyl)-2,3-dihydrobenzo-furan-3-yl)imidazo [1,5-a]quinoxaline-8-carboxamide-3-d], the IC50 in test [1] was found to be 5.6 nM; in test [2], 1300 nM.
The like results for `N#Cc1ccc2c(c1)OC[C@H]2N(C(=O)c1ccc2nc(N)c3cncn3c2c1)C1CC1` (single isomer, unassigned) [Example 92] were, in that order, 46.6 nM and 4750 nM.
The like results for `Nc1nc2cnc(C(=O)N(C3CC3)[C@@H]3COc4cc(C(F)(F)F)ccc43)cc2n2cncc12` (single isomer, unassigned) [Example 88] were, in that order, 24.1 nM and 1850 nM.
Take `Nc1nc2ccc(C(=O)N(C3CC3)[C@@H]3COc4cc(Br)ccc43)cc2n2cncc12` (single isomer, unassigned) [Example 82]: the IC50 in test [1] was found to be 52.9 nM; in test [2], 1920 nM.
For `CN(C(=O)c1cc2c(cc1Cl)nc(N)c1cncn12)[C@@H]1COc2cc(C(F)(F)F)ccc21` [Example 27, (S)-4-amino-7-chloro-N-methyl-N-(6-(trifluoromethyl)-2,3-dihydrobenzofuran-3-yl)imidazo[1,5-a]quinoxaline-8-carboxamide] the same measures were 4.4 nM and 842 nM.
For `CN(C(=O)c1cc2c(cc1F)nc(N)c1cncn12)[C@@H]1COc2cc(S(C)(=O)=O)ccc21` [Example 38, (S)-4-amino-7-fluoro-N-methyl-N-(6-(methylsulfonyl)-2,3-dihydrobenzofuran-3-yl)imidazo[1,5-a] quinoxaline-8-carboxamide] the same measures were 30 nM and 4060 nM.
The like results for `CN(C(=O)c1ccc2nc(N)c3cncn3c2c1)C1CSc2cc(C(F)(F)F)ccc21` (stereo not drawn) [Example 43, 4-amino-N-methyl-N-(6-(trifluoromethyl)-2,3-dihydrobenzo[b]thiophen-3-yl)imidazo [1,5-a]quinoxaline-8-carboxamide] were, in that order, 22.4 nM and 2990 nM.
As to `CN(C(=O)c1cc2c(cc1C#N)nc(N)c1cncn12)[C@@H]1COc2cc(C(F)(F)F)ccc21` [Example 14, (S)-4-amino-7-cyano-N-methyl-N-(6-(trifluoromethyl)-2,3-dihydrobenzofuran-3-yl)imidazo[1,5-a] quinoxaline-8-carboxamide], the values for the IC50 in test [1] and in test [2] were 14.7 nM and 1280 nM, respectively.
The like results for `CN(C(=O)c1ccc2nc(N)c3cncn3c2c1)[C@H]1COCc2ccc(C(F)(F)F)cc21` (single isomer, unassigned) [Example 93] were, in that order, > 3000 nM and > 10000 nM.
For `CN(C(=O)c1ccc2nc(N)c3cncn3c2c1)[C@H]1COc2cc(S(F)(F)(F)(F)F)ccc21` (single isomer, unassigned) [Example 103] the same measures were 931 nM and 6260 nM.
Regarding `N#Cc1ccc2c(c1)OC[C@@H]2N(C(=O)c1ccc2nc(N)c3cncn3c2c1)C1CC1` (single isomer, unassigned) [Example 91], the IC50 is 2180 nM in test [1] and > 20000 nM in test [2].
For `CN(C(=O)c1cc2c(cc1F)nc(N)c1cncn12)[C@H]1COc2cc(C(F)(F)F)ccc21` [Example 120, (R)-4-amino-7-fluoro-N-methyl-N-(6-(trifluoromethyl)-2,3-dihydrobenzofuran-3-yl)imidazo[1,5-a]quinoxaline-8-carboxamide] the same measures were 900 nM and > 10000 nM.
For `C[C@@H]1OC[C@@H](N(C)C(=O)c2ccc3nc(N)c4cncn4c3c2)c2ccc(C(F)(F)F)cc21` [Example 105, 4-amino-N-methyl-N-((1S,4S)-1-methyl-7-(trifluoromethyl)isoch-roman-4-yl)imidazo [1,5-a]quinoxaline-8-carboxamide] the same measures were 66.1 nM and 2190 nM.
The like results for `Cc1ncc(-c2ccc3c(c2)OCC3N(C(=O)c2ccc3nc(N)c4cncn4c3c2)C2CC2)cn1` (stereo not drawn) [Example 72, 4-amino-N-cyclopropyl-N-(6-(2-methylpyrimidin-5-yl)-2,3-dihydrobenzofuran-3-yl)imidazo[1,5-a]quinoxaline-8-carboxamide] were, in that order, 117 nM and > 20000 nM.
Turning to `CN(C(=O)c1ccc2nc(N)c3cncn3c2c1)[C@@H]1COCc2ccc(C(F)(F)F)cc21` (single isomer, unassigned) [Example 94], the IC50 in test [1] stood at 80.8 nM; in test [2] it was 5170 nM.
